Columns and labels:
[1] = biological target: bee venom phospholipase A2 (Apis mellifera, UniProt P00630); experiment: biochemical; conditions: read-out: PLA2 IC50
[2] = biological target: phosphoinositide-specific phospholipase C; experiment: Inhibition of Phosphoinositide-specific Phospholipase C; format: biochemical; conditions: procedure of Bennett et al, Molecular Pharmacology 32:587-593 (1987); read-out: PLC IC50
From the text: Inhibition of Phosphoinositide-specific Phospholipase C
The effect of compounds of this invention on phosphoinositide-specific phospholipase C may be determined by procedures described by Bennett et al, Molecular Pharmacology 32:587-593 (1987).

bee venom phospholipase A2, sequence (P00630 34-167 limits assumed): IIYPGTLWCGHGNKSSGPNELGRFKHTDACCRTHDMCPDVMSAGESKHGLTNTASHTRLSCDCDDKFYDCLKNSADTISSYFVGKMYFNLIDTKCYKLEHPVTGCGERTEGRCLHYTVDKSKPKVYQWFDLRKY

| SMILES | IC50 [1] | IC50 [2] |
| --- | --- | --- |
| CCCCCCCCCCCCC(OC(=O)CC(=O)OC(CCCCCCCCCCCC)C1=CC(=O)OC1O)C1=CC(=O)OC1O (centres unmarked) [Compound 1, Bis[1-(5-hydroxy-2(5H)-furano-4-yl)tridecyl]malonate] | 20 nM | 2000 nM |
| CCCCCCCCCCCCC(OC(=O)CCCC(=O)OC(CCCCCCCCCCCC)C1=CC(=O)OC1O)C1=CC(=O)OC1O (centres unmarked) [Compound 2] | 30 nM |  |
| CCCCCCC(OC(=O)CC(=O)OC(CCCCCC)C1=CC(=O)OC1O)C1=CC(=O)OC1O (centres unmarked) [Compound 4, Di[(1-5-hydroxy-2(5H)2-oxo-4-furyl)heptyl]malonate] | 30 nM |  |
| CC(=CCCC1=CCC(C2=CC(=O)OC2O)OC1O)CCC1=C(C)CCCC1(C)C (centres unmarked) [manoalide, Manoalide, reference compound] |  | 3000 nM |
